Tested on: Human gastric cancer cells (MKN-45)
Experiment: Inhibitory activity against the tumor growth of human gastric cancer cells (MKN-45) transplanted in nude mice
Format: in vivo, BALB/c (nu/nu) mice
Conditions: orally twice every day, tumor volume at fifth day, relative to control group
Description: Human gastric cancer cells (MNK-45) were suspended in HBSS (purchased from GIBCO BRL). The cell suspension (5×10^7 cells/ml) was transplanted under the right flank skin of seven-week-old female BALB/c (nu/nu) mice at a volume of 0.1 ml. When tumor volume of the site transplanted with MNK-45 cells grew to 100-200 mm^3, mice were grouped so that the groups might be equalized in average tumor volume. The test substance was suspended in 0.5% methylcellulose, a mixed solution of hydrochloric acid and glucose (0.1N hydrochloric acid:5% glucose=1:9) or a mixed solution of dimethyl sulfoxide-Tween-glucose (dimethyl sulfoxide:Tween 80:5% glucose (containing equimolar hydrochloric acid to the test substance)=7:13:80), were administered orally to the mice twice every day. The tumor volumes were determined at the fifth day after the initiation of the administration of the test substances. The major axis and the minor axis of tumor were measured by a caliper to calculate ½×(major axis×minor axis×minor axis) for the tumor volume. The experiment was conducted using 10 mice in the control group (solvent-administered group) and 5 mice in test substance-administered group. The ratio in tumor volume of the group for administrating the test substance relative to that of the control group was defined as a tumor proliferation rate (%).

Structure (SMILES)	Tumor proliferation rate (%) (Dose 30 mg/kg/time)	Tumor proliferation rate (%) (Dose 100 mg/kg/time)
CN(C)CCN1CCN(C(=O)Nc2cc(Oc3ccc(NC(=O)C4(C(=O)Nc5ccc(F)cc5)CC4)c(F)c3)ccn2)CC1 [Example 2, N-[4-({2-[({4-[2-(Dimethylamino)ethyl]piperazin-1-yl}carbonyl)amino]pyridin-4-yl}oxy)-2-fluorophenyl]-N′-(4-fluorophenyl)cyclopropane-1,1-dicarboxamide]	73.3	27.5
CN(C)CC1CCN(C(=O)Nc2cc(Oc3ccc(NC(=O)C4(C(=O)Nc5ccc(F)cc5)CC4)c(F)c3)ccn2)CC1 [Example 8, N-[4-({2-[({4-[(Dimethylamino)methyl]piperidin-1-yl}carbonyl)amino]pyridin-4-yl}oxy)-2-fluorophenyl]-N′-(4-fluorophenyl)cyclopropane-1,1-dicarboxamide]	53	23.3
CN1CCC(N(C)C(=O)Nc2cc(Oc3ccc(NC(=O)C4(C(=O)Nc5ccc(F)cc5)CC4)cc3)ccn2)CC1 [Example 12]	73.9	27.6
